According to ChEMBL document CHEMBL1909046, “DrugMatrix in vitro pharmacology data”:

Key:
[1] = molecular target: T1, Calcitonin receptor (Homo sapiens, UniProt P30988); assay type: cell membranes, Membrane; conditions: t47d; further: in other assays of this panel Not Active means under 50% inhibition at 10 µM
T1 sequence (P30988 whole entry): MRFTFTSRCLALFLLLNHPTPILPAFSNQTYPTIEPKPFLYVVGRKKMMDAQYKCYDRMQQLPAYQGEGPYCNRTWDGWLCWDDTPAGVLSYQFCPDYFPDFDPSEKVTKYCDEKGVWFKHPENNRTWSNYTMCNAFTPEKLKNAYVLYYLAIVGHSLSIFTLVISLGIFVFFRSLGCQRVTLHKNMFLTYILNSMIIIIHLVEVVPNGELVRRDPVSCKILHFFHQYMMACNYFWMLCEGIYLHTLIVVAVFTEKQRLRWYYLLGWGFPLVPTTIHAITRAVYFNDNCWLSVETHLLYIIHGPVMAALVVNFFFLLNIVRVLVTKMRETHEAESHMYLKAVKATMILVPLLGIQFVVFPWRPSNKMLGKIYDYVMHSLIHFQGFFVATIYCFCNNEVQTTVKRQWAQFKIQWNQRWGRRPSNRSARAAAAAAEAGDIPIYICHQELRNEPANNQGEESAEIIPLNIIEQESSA

[2] = molecular target: Vascular endothelial growth factor receptor 1 (Homo sapiens, UniProt P17948); assay: biochemical; assay type: cell-based, HUVEC; conditions: huvec; further: in other assays of this panel Not Active means under 50% inhibition at 10 µM
Chain of Vascular endothelial growth factor receptor 1 (P17948 whole entry): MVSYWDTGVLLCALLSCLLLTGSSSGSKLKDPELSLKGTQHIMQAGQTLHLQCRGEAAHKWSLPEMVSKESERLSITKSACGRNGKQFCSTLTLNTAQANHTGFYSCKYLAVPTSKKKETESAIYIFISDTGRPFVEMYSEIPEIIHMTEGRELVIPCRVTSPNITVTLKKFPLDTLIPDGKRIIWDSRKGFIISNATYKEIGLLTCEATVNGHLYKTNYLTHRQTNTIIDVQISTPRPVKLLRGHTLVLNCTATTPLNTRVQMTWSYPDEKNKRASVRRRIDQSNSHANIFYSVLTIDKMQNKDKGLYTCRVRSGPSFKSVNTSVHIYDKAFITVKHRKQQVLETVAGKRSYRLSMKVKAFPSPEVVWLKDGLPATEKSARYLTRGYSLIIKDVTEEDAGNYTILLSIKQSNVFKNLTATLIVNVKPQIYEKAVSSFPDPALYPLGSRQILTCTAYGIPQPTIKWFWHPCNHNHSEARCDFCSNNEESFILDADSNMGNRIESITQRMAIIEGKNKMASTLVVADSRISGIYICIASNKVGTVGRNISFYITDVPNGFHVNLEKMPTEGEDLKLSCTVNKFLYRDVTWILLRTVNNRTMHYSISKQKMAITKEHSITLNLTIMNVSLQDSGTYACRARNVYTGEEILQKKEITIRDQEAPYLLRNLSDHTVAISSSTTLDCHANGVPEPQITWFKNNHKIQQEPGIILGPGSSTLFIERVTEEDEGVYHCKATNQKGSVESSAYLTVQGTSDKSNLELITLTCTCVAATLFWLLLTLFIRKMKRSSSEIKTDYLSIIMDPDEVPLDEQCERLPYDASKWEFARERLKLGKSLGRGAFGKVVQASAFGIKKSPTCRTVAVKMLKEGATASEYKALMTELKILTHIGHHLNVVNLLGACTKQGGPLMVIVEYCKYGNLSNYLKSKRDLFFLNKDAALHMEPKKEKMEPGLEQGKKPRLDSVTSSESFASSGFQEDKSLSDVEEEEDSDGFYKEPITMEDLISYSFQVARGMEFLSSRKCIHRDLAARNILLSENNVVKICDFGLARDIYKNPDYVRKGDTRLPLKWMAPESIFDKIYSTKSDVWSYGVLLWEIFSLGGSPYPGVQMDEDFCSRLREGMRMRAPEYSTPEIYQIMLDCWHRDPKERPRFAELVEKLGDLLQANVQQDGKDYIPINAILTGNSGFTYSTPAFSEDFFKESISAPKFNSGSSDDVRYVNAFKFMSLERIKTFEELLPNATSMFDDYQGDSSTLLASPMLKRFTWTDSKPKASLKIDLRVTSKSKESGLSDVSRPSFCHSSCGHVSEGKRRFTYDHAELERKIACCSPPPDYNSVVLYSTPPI

[3] = molecular target: Carbonic anhydrase 2 (Homo sapiens, UniProt P00918); assay: DRUGMATRIX: Carbonic Anhydrase II enzyme inhibition (substrate: 4-Nitrophenyl acetate (4-NPA)); assay type: tissue-based; conditions: erythrocyte; Not Active = under 50% inhibition at 10 µM
[4] = molecular target: C-C chemokine receptor type 2 (Homo sapiens, UniProt P41597); assay type: cell membranes, Membrane; conditions: cho-k1; further: in other assays of this panel Not Active means under 50% inhibition at 10 µM
Chain of C-C chemokine receptor type 2 (P41597 whole entry): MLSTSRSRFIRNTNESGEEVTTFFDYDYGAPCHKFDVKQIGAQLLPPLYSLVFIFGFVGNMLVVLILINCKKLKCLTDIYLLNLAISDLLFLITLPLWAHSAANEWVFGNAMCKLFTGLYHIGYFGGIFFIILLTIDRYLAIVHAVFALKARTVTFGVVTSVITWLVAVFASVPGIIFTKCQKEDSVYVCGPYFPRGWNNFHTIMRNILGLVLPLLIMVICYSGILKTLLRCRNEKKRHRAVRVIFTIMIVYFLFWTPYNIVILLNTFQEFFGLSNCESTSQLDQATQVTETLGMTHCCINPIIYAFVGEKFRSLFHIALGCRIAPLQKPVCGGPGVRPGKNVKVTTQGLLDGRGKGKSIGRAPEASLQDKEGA

[5] = DRUGMATRIX: Glutamate, NMDA, Phencyclidine radioligand binding (ligand: [3H] TCP); assay type: cell membranes, Rattus norvegicus, Wistar, Cerebral cortex, Membrane; conditions: Not Active = under 50% inhibition at 10 µM
[6] = molecular target: Nitric oxide synthase 1 (Rattus norvegicus, UniProt P29476); assay type: tissue-based, Cerebellum; further: in other assays of this panel Not Active means under 50% inhibition at 10 µM
Chain of Nitric oxide synthase 1 (P29476 whole entry): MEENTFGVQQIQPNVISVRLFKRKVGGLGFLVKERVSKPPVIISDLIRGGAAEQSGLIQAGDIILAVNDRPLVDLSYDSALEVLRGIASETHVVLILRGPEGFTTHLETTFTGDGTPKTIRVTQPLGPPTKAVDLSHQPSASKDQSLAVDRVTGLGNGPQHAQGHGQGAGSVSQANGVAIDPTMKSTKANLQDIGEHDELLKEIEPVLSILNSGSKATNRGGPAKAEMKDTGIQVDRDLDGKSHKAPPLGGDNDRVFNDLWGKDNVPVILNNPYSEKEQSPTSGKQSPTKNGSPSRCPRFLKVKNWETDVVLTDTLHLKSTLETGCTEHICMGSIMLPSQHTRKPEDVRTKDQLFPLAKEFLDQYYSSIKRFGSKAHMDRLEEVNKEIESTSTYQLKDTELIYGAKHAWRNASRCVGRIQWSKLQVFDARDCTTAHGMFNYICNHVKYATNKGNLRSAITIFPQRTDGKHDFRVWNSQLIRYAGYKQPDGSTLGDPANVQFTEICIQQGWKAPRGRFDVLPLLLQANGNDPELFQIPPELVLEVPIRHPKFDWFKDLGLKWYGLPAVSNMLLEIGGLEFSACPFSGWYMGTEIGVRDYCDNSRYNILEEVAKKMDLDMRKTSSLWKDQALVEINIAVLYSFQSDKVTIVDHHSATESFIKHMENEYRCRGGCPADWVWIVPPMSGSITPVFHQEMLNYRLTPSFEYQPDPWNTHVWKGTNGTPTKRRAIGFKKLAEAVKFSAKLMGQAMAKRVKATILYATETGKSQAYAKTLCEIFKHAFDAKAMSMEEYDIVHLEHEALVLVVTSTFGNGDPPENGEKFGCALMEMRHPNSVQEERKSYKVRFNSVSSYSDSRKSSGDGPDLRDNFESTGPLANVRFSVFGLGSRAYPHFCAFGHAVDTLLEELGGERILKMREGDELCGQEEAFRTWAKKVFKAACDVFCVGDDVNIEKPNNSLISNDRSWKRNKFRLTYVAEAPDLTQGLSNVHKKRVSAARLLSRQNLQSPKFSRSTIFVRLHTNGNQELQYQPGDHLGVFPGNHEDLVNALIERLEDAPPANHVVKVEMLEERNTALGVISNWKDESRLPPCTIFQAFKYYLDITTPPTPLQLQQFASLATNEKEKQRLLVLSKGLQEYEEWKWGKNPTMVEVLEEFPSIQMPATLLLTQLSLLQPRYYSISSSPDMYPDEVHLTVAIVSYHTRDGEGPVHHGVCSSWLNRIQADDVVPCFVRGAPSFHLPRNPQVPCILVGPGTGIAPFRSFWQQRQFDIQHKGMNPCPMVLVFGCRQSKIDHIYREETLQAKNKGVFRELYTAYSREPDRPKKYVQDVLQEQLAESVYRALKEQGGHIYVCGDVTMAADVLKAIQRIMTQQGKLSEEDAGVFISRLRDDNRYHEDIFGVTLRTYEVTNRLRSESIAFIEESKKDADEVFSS

[7] = molecular target: T2, Interstitial collagenase (Homo sapiens, UniProt P03956); assay: biochemical; assay type: tissue-based, Rheumatoid synovial fibroblasts
T2 sequence (P03956 whole entry): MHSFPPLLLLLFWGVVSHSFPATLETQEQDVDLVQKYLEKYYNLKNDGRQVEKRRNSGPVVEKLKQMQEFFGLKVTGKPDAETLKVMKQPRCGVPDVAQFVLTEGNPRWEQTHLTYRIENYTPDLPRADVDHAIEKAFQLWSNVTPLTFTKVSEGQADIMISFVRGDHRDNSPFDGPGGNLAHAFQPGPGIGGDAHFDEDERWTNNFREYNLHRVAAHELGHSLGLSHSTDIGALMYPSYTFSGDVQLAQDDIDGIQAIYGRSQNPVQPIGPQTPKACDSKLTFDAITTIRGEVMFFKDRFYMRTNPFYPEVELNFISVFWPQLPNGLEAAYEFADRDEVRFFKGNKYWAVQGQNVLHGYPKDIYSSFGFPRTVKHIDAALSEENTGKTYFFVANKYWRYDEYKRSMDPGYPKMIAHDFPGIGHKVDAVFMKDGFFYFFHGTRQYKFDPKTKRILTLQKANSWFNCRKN

[8] = molecular target: T3, Estrogen receptor (Homo sapiens, UniProt P03372); conditions: sf9; further: in other assays of this panel Not Active means under 50% inhibition at 10 µM
T3 sequence (P03372 whole entry): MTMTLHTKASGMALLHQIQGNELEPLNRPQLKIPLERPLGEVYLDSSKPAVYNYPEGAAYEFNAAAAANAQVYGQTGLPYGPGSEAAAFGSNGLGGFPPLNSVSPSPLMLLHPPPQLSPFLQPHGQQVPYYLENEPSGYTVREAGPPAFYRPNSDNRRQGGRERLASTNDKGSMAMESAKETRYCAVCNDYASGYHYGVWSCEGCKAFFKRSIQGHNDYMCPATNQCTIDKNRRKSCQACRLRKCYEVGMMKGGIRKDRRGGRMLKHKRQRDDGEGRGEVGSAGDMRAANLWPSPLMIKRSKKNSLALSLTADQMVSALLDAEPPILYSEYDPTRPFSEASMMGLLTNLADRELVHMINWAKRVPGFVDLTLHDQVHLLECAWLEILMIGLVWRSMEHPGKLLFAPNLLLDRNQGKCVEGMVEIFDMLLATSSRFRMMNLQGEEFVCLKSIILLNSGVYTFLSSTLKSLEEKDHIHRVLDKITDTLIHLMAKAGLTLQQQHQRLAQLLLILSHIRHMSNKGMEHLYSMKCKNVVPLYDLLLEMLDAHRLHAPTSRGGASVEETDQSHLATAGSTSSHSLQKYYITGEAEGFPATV

GENTAMICIN
Not Active: IC50 [1] | Ki [1] | IC50 [2] | Ki [2] | IC50 [3] | Ki [3] | IC50 [4] | Ki [4] | IC50 [5] | Ki [5] | IC50 [6] | Ki [6] | IC50 [7] | Ki [7] | IC50 [8] | Ki [8]

GRAMICIDIN
Not Active: IC50 [1] | Ki [1] | IC50 [2] | Ki [2] | IC50 [3] | Ki [3] | IC50 [4] | Ki [4] | IC50 [5] | Ki [5] | IC50 [6] | Ki [6] | IC50 [7] | Ki [7] | IC50 [8] | Ki [8]

NYSTATIN
Not Active: IC50 [1] | Ki [1] | IC50 [2] | Ki [2] | IC50 [3] | Ki [3] | IC50 [4] | Ki [4] | IC50 [5] | Ki [5] | IC50 [6] | Ki [6] | IC50 [7] | Ki [7] | IC50 [8] | Ki [8]
